Reference: US20210386367A1, “DEVICES AND SYSTEMS FOR GASTROINTESTINAL MICROBIOME DETECTION AND MANIPULATION” (Progenity, Inc., priority 2018, published 2021)
Converted amounts (≈) assume the structure as drawn.

What was measured:
[1] = tested on: E. coli (ATCC 25922, ATCC 35218, MMX 1312); assay: Agar dilution MIC (spontaneous mutation study; strain in conditions); assay type: cell-based, Escherichia coli
[2] = tested on: B. vulgatus ATCC 8482; assay: Broth microdilution MIC (time-kill study); assay type: cell-based, Bacteroides vulgatus
[3] = tested on: B. ovatus MMX 3503; assay: Broth microdilution MIC (time-kill study); assay type: cell-based, Bacteroides ovatus
[4] = tested on: S. pneumonia; assay: Spontaneous mutation frequency and mutation prevention concentration (MPC); assay type: cell-based; conditions: S. pneumoniae ATCC 49619
Excerpt: (§1) As used herein, “spontaneous mutation frequency” refers to the rate at which mutations arise in a bacterium that can lead to resistance to develop to an antimicrobial agent. “Mutation prevention concentration” or “MPC” refers to the lowest concentration of antimicrobial agent above which the selective proliferation of resistant mutants is expected to occur only rarely.

[5] = tested on: Escherichia coli; assay: as above; assay type: cell-based
Excerpt: as §1

[6] = tested on: B. vulgatus; assay: as above; assay type: cell-based; conditions: B. vulgatus ATCC 8482
Excerpt: as §1

[7] = tested on: S. agalactiae; assay: as above; assay type: cell-based; conditions: S. agalactiae ATCC 13813
Excerpt: as §1

[8] = tested on: S. pyogenes; assay: as above; assay type: cell-based; conditions: S. pyogenes ATCC 49399
Excerpt: as §1

[9] = tested on: Prevotella spp. clinical isolates; assay: MIC distribution against clinical isolates; assay type: cell-based; conditions: 30 Prevotella spp. isolates
[10] = tested on: Bacteroides non fragilis clinical isolates; assay: MIC distribution against clinical isolates; assay type: cell-based; conditions: 29 Bacteroides non-fragilis isolates
[11] = tested on: Streptococcus spp. (S. pneumoniae ATCC 49619, S. pyogenes ATCC 49399, S. agalactiae ATCC 13813); assay: Agar dilution MIC (spontaneous mutation study; strain in conditions); assay type: cell-based
[12] = tested on: S. pneumoniae ATCC 49619; assay: Time-kill assay; assay type: cell-based, Streptococcus pneumoniae
[13] = tested on: S. agalactiae ATCC 13813; assay: Time-kill assay; assay type: cell-based, Streptococcus agalactiae; conditions: 2×, 4×, 8× MIC; 2, 6, 24 hr
[14] = E. coli ATCC 25922, rifaximin selection 4X MIC, 32 μg/mL
[15] = E. coli ATCC 25922, rifaximin selection 8X MIC, 64 μg/mL
[16] = E. coli ATCC 35218, rifaximin selection 4X MIC, 32 μg/mL, estimated by counting a quarter of the plate
[17] = E. coli ATCC 35218, rifaximin selection 8X MIC, 64 μg/mL, estimated by counting a quarter of the plate
[18] = E. coli MMX 1312, rifaximin selection 4X MIC, 16 μg/mL
[19] = E. coli MMX 1312, rifaximin selection 8X MIC, 32 μg/mL
[20] = rifaximin selection 4X MIC, 0.5 μg/mL
[21] = rifaximin selection 8X MIC, 1 μg/mL
[22] = rifaximin selection 4X MIC, 1 μg/mL
[23] = rifaximin selection 8X MIC, 2 μg/mL

## CO[C@H]1/C=C/O[C@@]2(C)Oc3c(C)c(O)c4c(O)c(c5c(nc6cc(C)ccn65)c4c3C2=O)NC(=O)/C(C)=C\C=C\[C@H](C)[C@H](O)[C@@H](C)[C@@H](O)[C@@H](C)[C@H](OC(C)=O)[C@@H]1C [rifaximin]
[1]; E. coli ATCC 25922
  Agar MIC: >4 µg/mL
[1]; E. coli ATCC 35218
  Agar MIC: >4 µg/mL
[1]; E. coli MMX 1312
  Agar MIC: 4 µg/mL
[1]; over evaluated E. coli isolates (range stated jointly with other groups)
  MIC values (agar dilution): ≥ 4 µg/mL
[2]; B. vulgatus ATCC 8482
  MIC: 0.25 µg/mL (≈ 0.318 µM)
[2]; broth microdilution
  MIC: 0.25 µg/mL (≈ 0.318 µM)
[3]; B. ovatus MMX 3504 (so in the source)
  MIC: 2 µg/mL (≈ 2.54 µM)
[3]; broth microdilution
  MIC: 1 µg/mL (≈ 1.27 µM)
[4]
  MFC: >0.25 µg/mL
[5]; E. coli ATCC 25922
  MFC: >64 µg/mL
[5]; [14]
  Average Count: TNTC
  Count 1: TNTC
  Count 2: TNTC
[5]; E. coli ATCC 25922, rifaximin selection 4X MIC, 32 μg/mL, based on estimated count of >500 average CFU
  Spontaneous Mutation Frequency: >2.24 × 10^−8
[5]; [15]
  Average Count: TNTC
  Count 1: TNTC
  Count 2: TNTC
[5]; E. coli ATCC 25922, rifaximin selection 8X MIC, 64 μg/mL, based on estimated count of >500 average CFU
  Spontaneous Mutation Frequency: >2.24 × 10^−8
[5]; E. coli ATCC 35218
  MFC: >64 µg/mL
[5]; E. coli ATCC 35218, rifaximin selection 4X MIC, 32 μg/mL
  Spontaneous Mutation Frequency: 2.37 × 10^−8
[5]; [16]
  Average Count: 688^2 CFU
  Count 2: 600^1 CFU
[5]; E. coli ATCC 35218, rifaximin selection 8X MIC, 64 μg/mL
  Spontaneous Mutation Frequency: 1.15 × 10^−8
[5]; [17]
  Average Count: 332^1 CFU
  Count 1: 360^1 CFU
  Count 2: 304^1 CFU
[5]; E. coli MMX 1312
  MFC: >32 µg/mL
[5]; [18]
  Average Count: TNTC
  Count 1: TNTC
  Count 2: TNTC
[5]; E. coli MMX 1312, rifaximin selection 4X MIC, 16 μg/mL, based on estimated count of >500 average CFU
  Spontaneous Mutation Frequency: >2.06 × 10^−8
[5]; [19]
  Average Count: TNTC
  Count 1: TNTC
  Count 2: TNTC
[5]; E. coli MMX 1312, rifaximin selection 8X MIC, 32 μg/mL, based on estimated count of >500 average CFU
  Spontaneous Mutation Frequency: >2.06 × 10^−8
[6]
  MFC: >1 µg/mL
[6]; [20]
  Average Count: 5 CFU
  Count 1: 6 CFU
  Count 2: 4 CFU
  Spontaneous Mutation Frequency: 8.70 × 10^−10
[6]; [21]
  Average Count: 4 CFU
  Count 1: 2 CFU
  Count 2: 5 CFU
  Spontaneous Mutation Frequency: 6.96 × 10^−10
[7]
  MFC: >2 µg/mL
[7]; [22]
  Average Count: 159 CFU
  Count 1: 180 CFU
  Count 2: 137 CFU
  Spontaneous Mutation Frequency: 2.77 × 10^−8
[7]; [23]
  Average Count: 115 CFU
  Count 1: 110 CFU
  Count 2: 120 CFU
  Spontaneous Mutation Frequency: 2.00 × 10^−8
[8]
  MFC: >1 µg/mL
[8]; [20]
  Average Count: 83 CFU
  Count 1: 78 CFU
  Count 2: 87 CFU
  Spontaneous Mutation Frequency: 1.51 × 10^−8
[8]; [21]
  Average Count: 84 CFU
  Count 1: 78 CFU
  Count 2: 89 CFU
  Spontaneous Mutation Frequency: 1.53 × 10^−8
[9]; MIC 32 μg/mL
  Cumulative percentage of isolates inhibited at MIC: 100.0%
  Number of test isolates at MIC: 1
[9]; MIC […]
  Number of test isolates at MIC: 12
[10]; MIC […]
  Number of test isolates at MIC: 12
[10]; MIC ≤0.03 μg/mL
  Number of test isolates at MIC: 3
[11]; S. agalactiae ATCC 13813
  Agar MIC: 0.25 µg/mL
[11]; S. pneumoniae ATCC 49619
  Agar MIC: 0.03 µg/mL
[11]; S. pyogenes ATCC 49399
  Agar MIC: 0.12 µg/mL
[11]; over evaluated Streptococcus spp. (range stated jointly with other groups)
  MIC values (agar dilution): 0.03 to 0.5 µg/mL
[12]; 2×, 4×, 8× MIC, 2, 6, 24 hr
  time-kill kinetics outcome (bactericidal = ≥3 log reduction in CFU per mL): rebounded to no-drug control levels at 24 hr
[12]; all three concentrations, 6 hr timepoint
  CFU decrease: approximately 2.3 log10 CFU
[13]
  time-kill kinetics outcome (bactericidal = ≥3 log reduction in CFU per mL): bacteriostatic effect at 4× and 8× the MIC
